Assay results reported in ChEMBL document CHEMBL1201862, “PubChem BioAssay data set” (2004).
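Values below derive from 48-hour exposures of cells grown in 96-well plates, with endpoints linearly interpolated between the two concentrations bracketing the appropriate inhibition level. Abbreviation: GI50, concentration required for 50% inhibition of growth.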 Active and inactive are the calls of the source. No stated cut-off is given here; in the data, active = GI50 up to about 1.1 µM and inactive = higher.

Tests used:
Test in all cases: NCI tumour cell line growth inhibition, 48 h
[1] = test system: NCI-H460
[2] = test system: RXF 393
[3] = test system: SN12C
[4] = test system: NCI/ADR-RES
[5] = test system: U-251
[6] = test system: SK-MEL-2
[7] = test system: UO-31
[8] = test system: MDA-MB-435
[9] = test system: DU-145
[10] = test system: MDA-N
[11] = test system: Hs-578T
[12] = test system: HOP-92
[13] = test system: UACC-62
[14] = test system: EKVX
[15] = test system: KM12
[16] = test system: RPMI-8226
[17] = test system: MCF7
[18] = test system: NCI-H226
[19] = test system: HCT-116
[20] = test system: SNB-19
[21] = test system: CAKI-1
[22] = test system: OVCAR-5
[23] = test system: PC-3
[24] = test system: COLO 205
[25] = test system: SK-OV-3
[26] = test system: SF-539
[27] = test system: M14
[28] = test system: A498
[29] = test system: TK-10
[30] = test system: HOP-62
[31] = test system: UACC-257
[32] = test system: NCI-H23
[33] = test system: ACHN
[34] = test system: CCRF-CEM
[35] = test system: SF-268
[36] = test system: K562
[37] = test system: SW-620
[38] = test system: BT-549
[39] = test system: Malme-3M
[40] = test system: OVCAR-3
[41] = test system: IGROV-1
[42] = test system: LOX IMVI
[43] = test system: SR
[44] = test system: SK-MEL-28
[45] = test system: MDA-MB-231
[46] = test system: SF-295
[47] = test system: OVCAR-4
[48] = test system: A549
[49] = test system: HCT-15
[50] = test system: SK-MEL-5
[51] = test system: HT-29
[52] = test system: OVCAR-8
[53] = test system: T47D
[54] = test system: HCC 2998
[55] = test system: SNB-75
[56] = test system: NCI-H522
[57] = test system: HL-60
[58] = test system: MOLT-4
[59] = test system: 786-0

Measured: GI50

O=C1OC(c2ccc(O)cc2)(c2ccc(O)cc2)c2ccc(Cl)c3cccc1c23.O=C1OC(c2ccc(O)cc2)(c2ccc(O)cc2)c2cccc3c(Cl)ccc1c23
inactive: [1] 12.4 µM | [2] 10.8 µM | [3] 8.47 µM | [4] 11.7 µM | [5] 11.9 µM | [6] 12.6 µM | [7] 23 µM | [8] 9.46 µM | [9] 75 µM | [10] 11.8 µM | [11] 12.1 µM | [12] 24.2 µM | [13] 10.1 µM | [15] 8.11 µM | [16] 12.5 µM | [17] 13.6 µM | [18] 12.9 µM | [19] 9.46 µM | [20] 23.1 µM | [21] 8.51 µM | [22] 9.84 µM | [23] 3.48 µM | [25] 19.2 µM | [26] 10.7 µM | [27] 10 µM | [28] 19.1 µM | [29] 13.6 µM | [30] 3.94 µM | [31] 22.2 µM | [32] 11.1 µM | [33] 13.9 µM | [34] 15.5 µM | [35] 15.9 µM | [36] 21.2 µM | [37] 14.9 µM | [38] 11.8 µM | [39] 9.55 µM | [40] 11.5 µM | [41] 12.5 µM | [42] 10.9 µM | [43] 9.04 µM | [44] 4.09 µM | [45] 10.7 µM | [46] 12.2 µM | [48] 18.8 µM | [50] 12.7 µM | [51] 12.2 µM | [52] 14.4 µM
10.8 µM: [49]
active: [14] 0.075 µM | [24] 1.03 µM | [47] 0.0384 µM

O=C(O)C1CC2C3CCC2C1C3=O (stereo unspecified)
> 100 µM: [49]
inactive: [1] > 100 µM | [2] > 100 µM | [3] > 100 µM | [4] > 100 µM | [5] > 100 µM | [6] > 100 µM | [7] > 100 µM | [8] > 100 µM | [9] > 100 µM | [10] > 100 µM | [11] > 100 µM | [12] > 100 µM | [13] > 100 µM | [14] > 100 µM | [15] > 100 µM | [53] > 100 µM | [17] > 100 µM | [18] > 100 µM | [19] > 100 µM | [20] > 100 µM | [54] > 100 µM | [21] > 100 µM | [22] > 100 µM | [23] > 100 µM | [24] > 100 µM | [25] > 100 µM | [26] > 100 µM | [55] > 100 µM | [27] > 100 µM | [28] > 100 µM | [29] > 100 µM | [30] > 100 µM | [56] > 100 µM | [31] > 100 µM | [32] > 100 µM | [33] > 100 µM | [57] > 100 µM | [34] > 100 µM | [35] > 100 µM | [36] > 100 µM | [37] > 100 µM | [58] > 100 µM | [59] > 100 µM | [39] > 100 µM | [40] > 100 µM | [41] > 100 µM | [42] > 100 µM | [43] > 100 µM | [44] > 100 µM | [45] > 100 µM | [46] > 100 µM | [47] > 100 µM | [48] > 100 µM | [50] > 100 µM | [51] > 100 µM | [52] > 100 µM

O=C1C=CC(=O)c2c(O)nc(CBr)nc21
inactive: [2] > 100 µM | [3] 38.5 µM | [4] > 100 µM | [5] 95.9 µM | [6] > 100 µM | [7] > 100 µM | [8] 30.4 µM | [9] > 100 µM | [10] 36.1 µM | [11] > 100 µM | [13] 46.5 µM | [14] > 100 µM | [15] 52 µM | [16] 97.9 µM | [53] > 100 µM | [17] 56.2 µM | [19] 56.8 µM | [54] > 100 µM | [21] > 100 µM | [22] > 100 µM | [23] 42.2 µM | [24] > 100 µM | [25] > 100 µM | [26] > 100 µM | [55] > 100 µM | [27] 61.5 µM | [28] 82.6 µM | [30] > 100 µM | [56] > 100 µM | [31] > 100 µM | [32] 80.5 µM | [33] > 100 µM | [57] 14.9 µM | [35] > 100 µM | [36] 94.4 µM | [58] > 100 µM | [59] > 100 µM | [39] > 100 µM | [40] > 100 µM | [41] > 100 µM | [42] > 100 µM | [44] > 100 µM | [45] 61 µM | [46] 68.9 µM | [47] > 100 µM | [48] > 100 µM | [50] 44.9 µM | [51] 60.5 µM | [52] > 100 µM
> 100 µM: [49]

FC(F)(F)C1(C(F)(F)F)C2CCC3(CC(F)(F)C(F)(F)S3)C1C2 (stereo unspecified)
62.8 µM: [49]
inactive: [1] 41.3 µM | [2] 31.8 µM | [3] > 100 µM | [4] > 100 µM | [5] > 100 µM | [6] 22.6 µM | [7] 28.8 µM | [8] 86.7 µM | [9] 73.6 µM | [10] > 100 µM | [11] > 100 µM | [13] > 100 µM | [14] 32.4 µM | [15] 76.6 µM | [16] 28.2 µM | [53] > 100 µM | [17] 36.1 µM | [18] 64.7 µM | [19] 20.2 µM | [20] > 100 µM | [54] > 100 µM | [21] 98.2 µM | [22] 48.6 µM | [23] 37.2 µM | [24] 31.5 µM | [25] > 100 µM | [26] > 100 µM | [55] 61.9 µM | [27] > 100 µM | [28] 57 µM | [29] > 100 µM | [30] 48.4 µM | [56] 56.2 µM | [31] 26.1 µM | [32] 35.7 µM | [33] 37.8 µM | [57] 27.9 µM | [34] 24.5 µM | [35] 44.6 µM | [36] 36 µM | [37] > 100 µM | [58] 23.4 µM | [59] > 100 µM | [39] 34 µM | [40] 19.6 µM | [41] 87.7 µM | [42] 25.8 µM | [43] 21.3 µM | [44] > 100 µM | [45] > 100 µM | [46] 55.1 µM | [47] 80.5 µM | [48] 38.9 µM | [50] 44.3 µM | [51] 29 µM | [52] > 100 µM

C=C(Cl)C(=C)CCC(Cl)C(C)C (stereo unspecified)
inactive: [1] > 100 µM | [2] > 100 µM | [3] > 100 µM | [4] > 100 µM | [5] > 100 µM | [6] > 100 µM | [7] > 100 µM | [8] > 100 µM | [9] > 100 µM | [10] > 100 µM | [11] > 100 µM | [12] > 100 µM | [13] > 100 µM | [14] > 100 µM | [15] > 100 µM | [16] > 100 µM | [17] > 100 µM | [18] > 100 µM | [19] > 100 µM | [20] > 100 µM | [54] > 100 µM | [21] > 100 µM | [22] > 100 µM | [23] > 100 µM | [24] > 100 µM | [25] > 100 µM | [26] > 100 µM | [27] > 100 µM | [28] > 100 µM | [29] > 100 µM | [30] > 100 µM | [56] > 100 µM | [31] > 100 µM | [32] > 100 µM | [33] > 100 µM | [57] > 100 µM | [34] > 100 µM | [35] > 100 µM | [36] > 100 µM | [37] > 100 µM | [58] > 100 µM | [38] > 100 µM | [59] > 100 µM | [39] > 100 µM | [40] > 100 µM | [41] > 100 µM | [42] > 100 µM | [43] > 100 µM | [44] > 100 µM | [45] > 100 µM | [46] > 100 µM | [47] > 100 µM | [48] > 100 µM | [50] > 100 µM | [51] > 100 µM
